The test system of data set [1] is HCV replicon (Renilla luciferase reporter) in HUH-7 cells. The experiment in a line: HCV replicon luciferase reporter assay. Type of data set: cell-based, Hepatitis C virus (strain 1b). The note with it: Huh-7, 96 h, 4 days. An excerpt: An HCV replicon whole cell system was established as described by Lohmann V, Komer F, Koch J, Herian U, Theilmann L, Bartenschlager R., Science 285(5424):110-3 (1999). This system enabled us to evaluate the effects of our HCV Protease compounds on HCV RNA replication. Briefly, using the HCV strain 1b sequence described in the Lohmann paper (Assession number: AJ238799), an HCV cDNA was synthesized by Operon Technologies, Inc. (Alameda, Calif.), and the full-length replicon was then assembled in plasmid pGem9zf(+) (Promega, Madison, Wis.) using standard molecular biology techniques. The replicon consists of (i) the HCV 5′ UTR fused to the first 12 amino acids of the capsid protein, (ii) the neomycin phosphotransferase gene (neo), (iii) the IRES from encephalomyocarditis virus (EMCV), and (iv) HCV NS3 to NS5B genes and the HCV 3′ UTR. […]
As a secondary assay, EC50 determinations from the replicon FRET assay were confirmed in a replicon luciferase reporter assay. […] Following 4 days in a 37° C./5% CO2 incubator, cells were analyzed for Renilla Luciferase activity using the Promega Dual-Glo Luciferase Assay System. […] Plates were read on a Packard TopCount NXT using a luminescence program.
The percentage inhibition was calculated using the formula below: […]
The values were graphed and analyzed using XLfit to obtain the EC50 value.
For orientation: A replicon is a self-replicating genome or part of one, used to study replication in cells.

The subject of data set [2] is HCV replicon in HUH-7 cells. The experiment in a line: HCV replicon FRET assay. Type of data set: cell-based, Hepatitis C virus (strain 1b). Particulars: Hepatitis C virus. The procedure, abridged:
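HUH-7 cells stably carrying a genotype 1b subgenomic HCV replicon (NS3–NS5B) treated with compound for 4 days at 37° C, 0.5% DMSO final. Cytotoxicity (CC50) read by alamar Blue; cells then lysed with 10 μM FRET HCV protease peptide substrate and kinetically read (340/490 nm) for EC50.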

Like-named read-outs stand apart in the source and are kept apart here.

Usually EC50 stands for the concentration giving half of the maximal effect. For orientation: melting point means the temperature of the solid-liquid transition. For `CC(C)(C)OC(=O)N[C@H]1CCCCC/C=C\[C@@H]2C[C@@]2(C(=O)NS(=O)(=O)C2CC2)NC(=O)[C@@H]2C[C@@H](OC(=O)c3ccc(C#N)cc3)CN2C1=O` [Compound 26, 18-(4-cyanobenzoyloxy)-14-tert-butoxycarbonylamino-4-cyclopropylsulfonylaminocarbonyl-2,15-dioxo-3,16-diazatricyclo-[14.3.0.0^4,6]-nonadec-7-ene], the melting point is 164 to 166 °C. This compound also had an EC50 in data set [1] of 4.3 nM. Also, the concentration giving a half-maximal response (EC50) in data set [2] (96 h, HUH-7 replicon cells, 4 days, read-out: EC50 in the replicon FRET assay) amounted to 7.3 nM. The half-maximal effective concentration (EC50) in data set [2] (Huh-7, HCV replicon, for compounds tested, read-out: EC50 Range) was under 100 nM.
